The source of these data is patent publication US20030181374A1, “Methods and compositions for stimulating bone growth using inhibitors of microtubule assembly” (priority 2002, published 2003).

Molecules are shown by their SMILES. Marks after values point to notes of the source that are not given here. Where a SMILES comes first, the peptide text is derived from it. The star is where a group is joined. Cbz = O=C(OCc1ccccc1)*; OtBu = CC(C)(C)O*

Assay [1] has as its system Calvariae of one-month-old ICR Swiss mice. Nature of the assay: New bone formation on calvariae (new bone width by histomorphometry). The format is in vivo. The settings on record: x2d, mean ± SE, n=5. As to the method: (§1) Male ICR Swiss white mice, aged 4-6 weeks and weighing 13-26 gm, are employed, using 4-5 mice per group. The calvarial bone growth assay is performed as described in PCT application WO95/24211, incorporated by reference. Briefly, the test compound or appropriate control vehicle is injected into the subcutaneous tissue over the right calvaria of normal mice. Typically, the control vehicle is the vehicle in which the compound was solubilized, and is PBS containing 5% DMSO or is PBS containing Tween (2 μl/10 ml). The animals are sacrificed on day 14 and bone growth measured by histomorphometry. Bone samples for quantitation are cleaned from adjacent tissues and fixed in 10% buffered formalin for 24-48 hours, decalcified in 14% EDTA for 1-3 weeks, processed through graded alcohols; and embedded in paraffin wax. Three to five μm sections of the calvaria are prepared, and representative sections are selected for histomorphometric assessment of the effects on bone formation and bone resorption. Sections are measured by using a camera lucida attachment to trace directly the microscopic image onto a digitizing plate. Bone changes are measured on sections cut 200 μm apart, over 4 adjacent 1×1 mm fields on both the injected and noninjected sides of the calvaria. New bone is identified by its characteristic woven structure, and osteoclasts and osteoblasts are identified by their distinctive morphology. Histomorphometry software (OsteoMeasure, Osteometrix, Inc., Atlanta) is used to process digitizer input to determine cell counts and measure areas or perimeters.
as §1, with “In more detail, male” for “Male”, “above.” for “in PCT application WO95/24211, incorporated by reference.”
Selected compounds and appropriate controls were assayed in vitro (ex vivo) for bone formation activity (described above in “Techniques for Neonatal Mouse Calvaria Assay (in vitro)). Histomorphometrical assessments of ex vivo calvaria were carried out using an OsteoMetrics bone morphometry measurement program, according to the manufacturer's instructions. Measurements were determined using either a 10- or 20-fold objective with a standard point counting eyepiece graticule.
New bone formation was determined (using a 10× objective) by measuring the new bone area formed in one field in 3 representative sections of each bone (4 bones per group). Each measurement was carried out ½ field distance from the end of the suture. Both total bone and old bone area were measured. Data were expressed as new bone width in mm.

In a further assay the test system is ICR Swiss mice. Nature of the assay: Bone volume and bone formation rates in ICR Swiss mice. In kind it is in vivo. The settings on record: n=10. As to the method: Briefly, test compound, positive control compound, PBS, or vehicle alone is administered subcutaneously once per day for 35 days. All animals are injected with calcein nine days and two days before sacrifice (two injections of calcein administered each designated day). Weekly body weights are determined. At the end of the 35-day cycle, the animals are weighed and bled by orbital or cardiac puncture. Serum calcium, phosphate, osteocalcin, and CBCs are determined. Both leg bones (femur and tibia) and lumbar vertebrae are removed, cleaned of adhering soft tissue, and stored in 70% ethanol for evaluation, as performed by peripheral quantitative computed tomography (pQCT; Ferretti, J., Bone (1995) 17:353S-64S), dual energy X-ray absorptiometry (DEXA; Laval-Jeantet A., et al., Calcif Tissue Intl (1995) 56:14-18; J. Casez, et al., Bone and Mineral (1994) 26:61-68) and/or histomorphometry. The effect of test compounds on bone remodeling can thus be evaluated.
Microtubule Inhibitor TN-16 Increases Bone Volume and Bone Formation Rates in ICR Swiss Mice.

The next assay deals with BMP2 promoter-Luc. The experiment in a line: High throughput screening: BMP2 promoter-luciferase reporter in 2T3-BMP-2-LUC osteoblast cells. Conditions: 2T3 cells, mean ± SE, n=4. The format is cell-based, mouse. The text has this: 2, 1995, the entire contents of which are incorporated herein by reference. This assay is also described as a portion of a study of immortalized murine osteoblasts (derived from a mouse expressing a transgene composed of a BMP2 promoter driving expression of T-antigen) in Ghosh-Choudhery, N., et al., Endocrinology (1996) 137:331-39. In this study, the immortalized cells were stably transfected with a plasmid containing a luciferase reporter gene driven by a mouse BMP2 promoter (˜2736/114 bp), and responded in a dose-dependent manner to recombinant human BMP2.
Briefly, the assay utilizes cells transformed permanently or transiently with constructs in which the promoter of a bone morphogenetic protein, specifically BMP2 or BMP4, is coupled to a reporter gene, typically luciferase. These transformed cells are then evaluated for the production of the reporter gene product; compounds that activate the BMP promoter will drive production of the reporter protein, which can be readily assayed. Many thousands of compounds have been subjected to this rapid screening technique, and only a very small percentage are able to elicit a level of expression of reporter gene 5-fold greater than that produced by vehicle. […] The active compounds (“BMP promoter-active compounds” or “active compounds”) are useful in promoting bone or cartilage growth, and thus in the treatment of vertebrates in need of bone or cartilage growth.
In more detail, the 2T3-BMP-2-LUC cells, a stably transformed osteoblast cell line described in Ghosh-Choudhury et al. Endocrinology (1996) 137:331-39, referenced above, was employed. The cells were cultured using α-MEM, 10% FCS with 1% penicillin/streptomycin and 1% glutamine (“plating medium”), and were split 1:5 once per week. For the assay, the cells were resuspended in a plating medium containing 4% FCS, plated in microtiter plates at a concentration of 5×10^3 cells (in 50 μl)/well, and incubated for 24 hours at 37° C. in 5% CO2. To initiate the assay, 50 μl of the test compound or the control in DMSO was added at 2× concentration to each well, so that the final volume was 100 μl. The final serum concentration was 2% FCS, and the final DMSO concentration was 1%. Compound 59-0008 (10 μM) was used as a positive control.
The treated cells were incubated for 24 hours at 37° C. and 5% CO2. The medium was then removed, and the cells were rinsed three times with PBS. After removal of excess PBS, 25 μl of 1× cell culture lysing reagent (Promega #E153A) was added to each well and incubated for at least ten minutes. Optionally, the plates/samples could be frozen at this point. To each well was added 50 μl of luciferase substrate (Promega #E152A; 10 ml Promega luciferase assay buffer per 7 mg Promega luciferase assay substrate). Luminescence was measured on an automated 96-well luminometer, and was expressed as either picograms of luciferase activity per well or as picograms of luciferase activity per microgram of protein, as provided below, using TN-16 as the test compound.

The next assay relates to mice. The experiment in a line: In vivo assay for bone mineral density. The settings on record: x2d, mean ± SE, n=10.

With `COc1cc2c(c(OC)c1OC)-c1ccc(OC)c(=O)cc1C(NC(C)=O)CC2` (stereo not drawn) [Colchicine, N-(5,6,7,9-Tetrahydro-1,2,3,10-tetra-methoxy-9-oxobenzo[a]heptalen-7-yl) acetamide], the results for the “New Bone Width” value in assay [1] (0.1 mg/kg/d) and in assay [1] (1.0 mg/kg/d) were 0.225 ± 0.013 mm and 0.305 ± 0.020 mm, respectively.

As to `COC(=O)Nc1nc2cc(C(=O)c3cccs3)ccc2[nH]1` [Nocodazole, Methyl-[5-(2-thienylcarbonyl)-1 H-benzimidazole-2-yl]-carbamate], in assay [1] (1.5 mg/kg/d), the “New Bone Width” value came out at 0.231 ± 0.027 mm.

In the case of `CCC(C)C(NC(=O)OCc1ccccc1)C(=O)NC(CCC(=O)OC(C)(C)C)C(=O)NC(C)C(=O)NC(C=O)CC(C)C` (stereo not drawn) [Ps-1] (Cbz-IE(OtBu)AL-aldehyde; configuration not given here), in the assay on ICR Swiss mice (1 mg/kg/d, x5, mean ± SE), the “Bone Formation Rate: BFR/BS” value is reported as 1.766 ± 0.425* μm^3/μm^2/day and the “Bone Volume (%, BV/TV)” value came out at 27.13 ± 1.51 %.

For the molecule `CC(Nc1ccccc1)=C1C(=O)NC(Cc2ccccc2)C1=O` (stereo not drawn) [TN-16, 3-(1-Anilinoethylidene)-5-benzylpyrrolidine-2,4-dione], the “New Bone Width” value came out at 0.120 ± 0.016 mm in assay [1] (2 mg/kg/d), 0.376 ± 0.029 mm in assay [1] (4 mg/kg/d) and 0.525 ± 0.035 mm in assay [1] (8 mg/kg/d). Besides, the “Luciferase Activity (Fold Change) (BMP2 promoter-Luc)” value in the assay with BMP2 promoter-Luc (TN-16 0.16 μM) amounted to 2.4 ± 0.40 Fold Change; in the assay with BMP2 promoter-Luc (TN-16 0.31 μM) it was 4.0 ± 0.09 Fold Change; in the assay on BMP2 promoter-Luc (TN-16 0.61 μM), 4.8 ± 0.50 Fold Change; with BMP2 promoter-Luc (TN-16 1.25 μM), 5.6 ± 0.12 Fold Change; with BMP2 promoter-Luc (TN-16 2.5 μM), 6.2 ± 0.30 Fold Change. The BMD in the assay with mice (Calvariae (1-month-old mice), 4 mg/kg/d) amounted to 26.0 ± 0.7 mg/cm^2; in the assay with mice (Calvariae (1-month-old mice), 8 mg/kg/d), 31.3 ± 0.5 mg/cm^2; in the assay with mice (Femora (3-month-old mice), 2 mg/kg/d), 90.1 ± 2.2 mg/cm^2; with mice (Femora (3-month-old mice), 4 mg/kg/d), 100.9 ± 1.6 mg/cm^2; with mice (Femora (3-month-old mice), 8 mg/kg/d), 102.1 ± 1.5 mg/cm^2; in the assay on mice (Tibiae (3-month-old mice), 2 mg/kg/d), 78.0 ± 2.2 mg/cm^2. For the same molecule, the BMD with mice (Tibiae (3-month-old mice), 4 mg/kg/d) is 84.5 ± 1.0 mg/cm^2; in the assay on mice (Tibiae (3-month-old mice), 8 mg/kg/d), 85.5 ± 0.8 mg/cm^2. In addition, the “Bone Formation Rate: BFR/BS” value in the assay on ICR Swiss mice (2 mg/kg/d, x2, mean ± SE) is recorded as 0.815 ± 0.129* μm^3/μm^2/day; in the assay with ICR Swiss mice (4 mg/kg/d, x2, mean ± SE), 1.130 ± 0.293* μm^3/μm^2/day; with ICR Swiss mice (8 mg/kg/d, x2, mean ± SE), 1.231 ± 0.181** μm^3/μm^2/day. Also, the “Bone Volume (%, BV/TV)” value with ICR Swiss mice (2 mg/kg/d, x2, mean ± SE) is 23.42 ± 3.13 %; with ICR Swiss mice (4 mg/kg/d, x2, mean ± SE), 27.21 ± 2.14 %; with ICR Swiss mice (8 mg/kg/d, x2, mean ± SE), 25.44 ± 1.29 %.
